Tests used:
Type in all cases: cell-based
hFP = target: T1, hFP (Homo sapiens, UniProt P43088); assay: FLIPR calcium signal study, hFP; details: HEK-293(EBNA) cells expressing recombinant human receptor, read-out: HFP functional data
T1 construct: expressed in transfected cells; host or cells: HEK-293(EBNA)
Experimental: (§1) Methods for FLIPR™ Studies (a) Cell Culture
(§2) HEK-293(EBNA) cells, stably expressing one type or subtype of recombinant human prostaglandin receptors (prostaglandin receptors expressed: hDP/Gqs5; hEP1; hEP2/Gqs5; hEP3A/Gqi5; hEP4/Gqs5; hFP; hIP; hTP), were cultured in 100 mm culture dishes in high-glucose DMEM medium containing 10% fetal bovine serum, 2 mM 1-glutamine, 250 μg/ml geneticin (G418) and 200 μg/ml hygromycin B as selection markers, and 100 units/ml penicillin G, 100 μg/ml streptomycin and 0.25 μg/ml amphotericin B.
(§3) (b) Calcium Signal Studies on the FLIPR™
(§4) Cells were seeded at a density of 5×10^4 cells per well in Biocoat® Poly-D-lysine-coated black-wall, clear-bottom 96-well plates (Becton-Dickinson) and allowed to attach overnight in an incubator at 37° C. Cells were then washed two times with HBSS-HEPES buffer (Hanks Balanced Salt Solution without bicarbonate and phenol red, 20 mM HEPES, pH 7.4) using a Denley Cellwash plate washer (Labsystems). After 45 minutes of dye-loading in the dark, using the calcium-sensitive dye Fluo-4 AM at a final concentration of 2 μM, plates were washed four times with HBSS-HEPES buffer to remove excess dye leaving 100 μl in each well. Plates were re-equilibrated to 37° C. for a few minutes.
(§5) Cells were excited with an Argon laser at 488 nm, and emission was measured through a 510-570 nm bandwidth emission filter (FLIPR™, Molecular Devices, Sunnyvale, Calif.). Drug solution was added in a 50 μl volume to each well to give the desired final concentration. The peak increase in fluorescence intensity was recorded for each well. On each plate, four wells each served as negative (HBSS-HEPES buffer) and positive controls (standard agonists: BW245C (hDP); PGE2 (hEP1; hEP2/Gqs5; hEP3A/Gqi5; hEP4/Gqs5); PGF2, (hFP); carbacyclin (hIP); U-46619 (hTP), depending on receptor). The peak fluorescence change in each drug-containing well was then expressed relative to the controls.
(§6) Compounds were tested in a high-throughput (HTS) or concentration-response (CoRe) format. In the HTS format, forty-four compounds per plate were examined in duplicates at a concentration of 10^−5 M. To generate concentration-response curves, four compounds per plate were tested in duplicates in a concentration range between 10^−5 and 10^−11 M. The duplicate values were averaged. In either, HTS or CoRe format each compound was tested on at least 3 separate plates using cells from different passages to give an n≧3.

hEP4/Gqs5 = target: T2, hEP4/Gqs5 (Homo sapiens, UniProt P35408); assay: FLIPR calcium signal study, hEP4/Gqs5; details: HEK-293(EBNA) cells expressing recombinant human receptor, read-out: HEP4 functional data
T2 construct: expressed in transfected cells; host or cells: HEK-293(EBNA)
T2 sequence (P35408 whole entry): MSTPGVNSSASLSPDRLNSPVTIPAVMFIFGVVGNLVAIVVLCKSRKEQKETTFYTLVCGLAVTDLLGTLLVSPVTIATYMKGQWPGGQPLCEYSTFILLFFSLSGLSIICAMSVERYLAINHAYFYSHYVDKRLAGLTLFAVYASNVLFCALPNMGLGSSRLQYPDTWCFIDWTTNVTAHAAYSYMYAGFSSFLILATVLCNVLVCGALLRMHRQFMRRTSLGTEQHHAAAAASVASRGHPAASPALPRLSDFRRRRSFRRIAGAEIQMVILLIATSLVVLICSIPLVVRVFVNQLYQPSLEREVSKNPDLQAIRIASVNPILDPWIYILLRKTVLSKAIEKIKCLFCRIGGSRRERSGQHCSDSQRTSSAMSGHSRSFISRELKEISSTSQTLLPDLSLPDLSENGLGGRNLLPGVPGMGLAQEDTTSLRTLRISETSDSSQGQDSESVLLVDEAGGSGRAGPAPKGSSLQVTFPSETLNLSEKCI
Experimental: as §1, §2, §3, §4, §5, §6

hTP = target: T3, hTP (Homo sapiens, UniProt P21731); assay: FLIPR calcium signal study, hTP; details: HEK-293(EBNA) cells expressing recombinant human receptor, read-out: HTP functional data
T3 construct: expressed in transfected cells; host or cells: HEK-293(EBNA)
T3 sequence (P21731 1-343): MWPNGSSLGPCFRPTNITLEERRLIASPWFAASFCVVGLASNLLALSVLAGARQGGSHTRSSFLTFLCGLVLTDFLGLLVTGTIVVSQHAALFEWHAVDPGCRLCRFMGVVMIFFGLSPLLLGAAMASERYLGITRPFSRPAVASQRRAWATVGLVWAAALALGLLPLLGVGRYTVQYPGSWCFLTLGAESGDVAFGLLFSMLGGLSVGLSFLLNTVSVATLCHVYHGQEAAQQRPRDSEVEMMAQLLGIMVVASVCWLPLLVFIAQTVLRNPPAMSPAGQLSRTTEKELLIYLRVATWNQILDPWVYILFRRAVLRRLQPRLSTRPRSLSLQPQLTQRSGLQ
Experimental: as §1, §2, §3, §4, §5, §6

hEP3A/Gqi5 = target: T4, hEP3A/Gqi5 (Homo sapiens, UniProt P43115); assay: FLIPR calcium signal study, hEP3A/Gqi5; details: HEK-293(EBNA) cells expressing recombinant human receptor, read-out: HEP3A functional data
T4 construct: expressed in transfected cells; host or cells: HEK-293(EBNA)
T4 sequence (P43115 1-390): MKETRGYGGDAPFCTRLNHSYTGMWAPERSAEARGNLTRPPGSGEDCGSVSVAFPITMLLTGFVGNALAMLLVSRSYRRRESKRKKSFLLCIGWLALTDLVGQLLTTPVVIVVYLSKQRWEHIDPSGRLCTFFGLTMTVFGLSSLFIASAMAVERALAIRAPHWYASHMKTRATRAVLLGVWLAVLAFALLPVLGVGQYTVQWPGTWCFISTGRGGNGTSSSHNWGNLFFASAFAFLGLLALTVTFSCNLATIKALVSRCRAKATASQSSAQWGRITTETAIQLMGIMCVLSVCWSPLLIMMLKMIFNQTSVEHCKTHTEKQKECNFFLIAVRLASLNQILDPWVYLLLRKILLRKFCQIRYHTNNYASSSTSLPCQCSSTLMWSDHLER
Experimental: as §1, §2, §3
Cells were seeded at a density of 5×10^4 cells per well in Biocoat® Poly-D-lysine-coated black-wall, clear-bottom 96-well plates (Becton-Dickinson) and allowed to attach overnight in an incubator at 37° C. Cells were then washed two times with HBSS-HEPES buffer (Hanks Balanced Salt Solution without bicarbonate and phenol red, 20 mM HEPES, pH 7.4) using a Denley Cellwash plate washer (Labsystems). […]
Cells were excited with an Argon laser at 488 nm, and emission was measured through a 510-570 nm bandwidth emission filter (FLIPR™, Molecular Devices, Sunnyvale, Calif.). […] The peak increase in fluorescence intensity was recorded for each well. […] The peak fluorescence change in each drug-containing well was then expressed relative to the controls. […]

hIP = target: T5, hIP (Homo sapiens, UniProt P43119); assay: FLIPR calcium signal study, hIP; details: HEK-293(EBNA) cells expressing recombinant human receptor, read-out: HIP functional data
T5 construct: expressed in transfected cells; host or cells: HEK-293(EBNA)
T5 sequence (P43119 whole entry): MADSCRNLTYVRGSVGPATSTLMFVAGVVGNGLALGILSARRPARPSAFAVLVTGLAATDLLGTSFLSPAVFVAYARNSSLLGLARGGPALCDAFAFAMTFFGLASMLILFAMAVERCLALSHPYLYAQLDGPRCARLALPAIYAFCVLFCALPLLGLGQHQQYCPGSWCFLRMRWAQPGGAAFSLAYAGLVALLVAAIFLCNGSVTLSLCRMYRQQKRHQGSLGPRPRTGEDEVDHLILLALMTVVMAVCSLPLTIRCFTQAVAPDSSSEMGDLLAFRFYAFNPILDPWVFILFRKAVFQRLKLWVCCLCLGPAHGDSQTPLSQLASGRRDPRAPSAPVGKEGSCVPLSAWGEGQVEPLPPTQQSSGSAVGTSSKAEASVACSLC
Experimental: as §1, §2, §3, §4, §5
Compounds were tested in a high-throughput (HTS) or concentration-response (CoRe) format. […]

T1 sequence (P43088 whole entry): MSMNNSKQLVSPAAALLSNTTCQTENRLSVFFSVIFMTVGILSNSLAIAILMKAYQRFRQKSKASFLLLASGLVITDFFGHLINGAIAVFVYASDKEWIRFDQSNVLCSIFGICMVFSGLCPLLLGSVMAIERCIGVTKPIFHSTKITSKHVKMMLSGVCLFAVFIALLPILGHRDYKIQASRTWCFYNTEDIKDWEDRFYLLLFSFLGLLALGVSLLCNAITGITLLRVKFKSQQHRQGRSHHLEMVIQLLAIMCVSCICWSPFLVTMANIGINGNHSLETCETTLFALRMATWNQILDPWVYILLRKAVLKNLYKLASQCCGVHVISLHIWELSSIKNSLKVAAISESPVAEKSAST

EC50 (hFP) [µM] | EC50 (hEP4/Gqs5) [µM] | EC50 (hTP) [µM] | EC50 (hEP3A/Gqi5) [µM] | EC50 (hIP) [µM] | Compound
> 10 | > 10 | > 10 | – | – | CCNC(=O)CCC/C=C\C[C@H]1C(O)CC(C)[C@@H]1/C=C/[C@@H](O)CCc1cc(Br)c(C)s1 (stereo partly drawn) [Compound 15H, (Z)-7-{(1R,2R)-2-[(E)-(S)-5-(4-Bromo-5-methyl-thiophen-2-yl)-3-hydroxy-pent-1-enyl]-5-hydroxy-3-methyl-cyclopentyl}-hept-5-enoic acid ethylamide]
– | > 10 | – | – | – | Cc1sc(CC[C@H](O)/C=C/[C@H]2C(C)CC(O)[C@@H]2C/C=C\CCCC(=O)NCCO)cc1Br (stereo partly drawn) [Compound 16L, (Z)-7-{(1R,2R)-2-[(E)-(S)-5-(4-Bromo-5-methyl-thiophen-2-yl)-3-hydroxy-pent-1-enyl]-5-hydroxy-3-methyl-cyclopentyl}-hept-5-enoic acid (2-hydroxy-ethyl)-amide]
5.42 | – | > 10 | > 10 | – | CCC1CC(O)[C@H](C/C=C\CCCC(N)=O)[C@H]1/C=C/[C@@H](O)CCc1cc(Br)c(C)s1 (stereo partly drawn) [Compound 20H, (Z)-7-{(1R,2R)-2-[(E)-(S)-5-(4-Bromo-5-methyl-thiophen-2-yl)-3-hydroxy-pent-1-enyl]-3-ethyl-5-hydroxy-cyclopentyl}-hept-5-enoic acid amide]
≥ 10 | > 10 | 1.95 | – | – | Cc1sc(CC[C@H](O)/C=C/[C@H]2C(C)CC(O)[C@@H]2C/C=C\CCCC(N)=O)cc1Br (stereo partly drawn) [Compound 17H, (Z)-7-{(1R,2R)-2-[(E)-(S)-5-(4-Bromo-5-methyl-thiophen-2-yl)-3-hydroxy-pent-1-enyl]-5-hydroxy-3-methyl-cyclopentyl}-hept-5-enoic acid amide]
– | > 10 | – | – | – | CCNC(=O)CCC/C=C\C[C@H]1C(O)CC(C)[C@@H]1/C=C/[C@@H](O)CCc1cc(Br)c(C)s1 (stereo partly drawn) [Compound 15L, (Z)-7-{(1R,2R)-2-[(E)-(S)-5-(4-Bromo-5-methyl-thiophen-2-yl)-3-hydroxy-pent-1-enyl]-5-hydroxy-3-methyl-cyclopentyl}-hept-5-enoic acid ethylamide]
0.584 | – | 2.52 | 7.08 | > 10 | C=CC1CC(O)[C@H](C/C=C\CCCC(N)=O)[C@H]1/C=C/[C@@H](O)CCc1cc(Br)c(C)s1 (stereo partly drawn) [Compound 13H, (Z)-7-{(1R,2S)-2-[(E)-(S)-5-(4-Bromo-5-methyl-thiophen-2-yl)-3-hydroxy-pent-1-enyl]-5-hydroxy-3-vinyl-cyclopentyl}-hept-5-enoic acid amide]
> 10 | – | > 10 | – | > 10 | C=CC1CC(O)[C@H](C/C=C\CCCC(=O)NCCO)[C@H]1/C=C/[C@@H](O)CCc1cc(Br)c(C)s1 (stereo partly drawn) [Compound 12L, (Z)-7-{(1R,2S)-2-[(E)-(S)-5-(4-Bromo-5-methyl-thiophen-2-yl)-3-hydroxy-pent-1-enyl]-5-hydroxy-3-vinyl-cyclopentyl}-hept-5-enoic acid (2-hydroxy-ethyl)-amide]
– | > 10 | – | – | – | C=CC1CC(O)[C@H](C/C=C\CCCC(N)=O)[C@H]1/C=C/[C@@H](O)CCc1cc(Br)c(C)s1 (stereo partly drawn) [Compound 13L, (Z)-7-{(1R,2S)-2-[(E)-(S)-5-(4-Bromo-5-methyl-thiophen-2-yl)-3-hydroxy-pent-1-enyl]-5-hydroxy-3-vinyl-cyclopentyl}-hept-5-enoic acid amide]
> 10 | > 10 | > 10 | – | > 10 | C=CC1CC(O)[C@H](C/C=C\CCCC(=O)NCCO)[C@H]1/C=C/[C@@H](O)CCc1cc(Br)c(C)s1 (stereo partly drawn) [Compound 12H, (Z)-7-{(1R,2S)-2-[(E)-(S)-5-(4-Bromo-5-methyl-thiophen-2-yl)-3-hydroxy-pent-1-enyl]-5-hydroxy-3-vinyl-cyclopentyl}-hept-5-enoic acid (2-hydroxy-ethyl)-amide]
> 10 | – | > 10 | – | – | CCNC(=O)CCC/C=C\C[C@H]1C(O)CC[C@@H]1/C=C/[C@@H](O)CCc1cc(Br)c(C)s1 (stereo partly drawn) [Compound 21H, (Z)-7-{(1R,2R)-2-[(E)-(S)-5-(4-Bromo-5-methyl-thiophen-2-yl)-3-hydroxy-pent-1-enyl]-5-hydroxy-cyclopentyl}-hept-5-enoic acid ethylamide]
> 10 | – | > 10 | – | – | Cc1sc(CC[C@H](O)/C=C/[C@H]2CCC(O)[C@@H]2C/C=C\CCCC(=O)NCCO)cc1Br (stereo partly drawn) [Compound 22H, (Z)-7-{(1R,2R)-2-[(E)-(S)-5-(4-Bromo-5-methyl-thiophen-2-yl)-3-hydroxy-pent-1-enyl]-5-hydroxy-cyclopentyl}-hept-5-enoic acid (2-hydroxy-ethyl)-amide]
> 10 | – | – | – | – | C=CC1CC(O)[C@H](C/C=C\CCCC(=O)NCC)[C@H]1/C=C/[C@@H](O)CCc1cc(Br)c(C)s1 (stereo partly drawn) [Compound 14H, (Z)-7-{(1R,2S)-2-[(E)-(S)-5-(4-Bromo-5-methyl-thiophen-2-yl)-3-hydroxy-pent-1-enyl]-5-hydroxy-3-vinyl-cyclopentyl}-hept-5-enoic acid ethylamide]
> 10 | – | 2.13 | – | – | Cc1sc(CC[C@H](O)/C=C/[C@H]2CCC(O)[C@@H]2C/C=C\CCCC(N)=O)cc1Br (stereo partly drawn) [Compound 23H, (Z)-7-{(1R,2R)-2-[(E)-(S)-5-(4-Bromo-5-methyl-thiophen-2-yl)-3-hydroxy-pent-1-enyl]-5-hydroxy-cyclopentyl}-hept-5-enoic acid amide]
2.14 | – | – | – | – | CCNC(=O)CCC/C=C\C[C@@H]1[C@@H](/C=C/[C@@H](O)CCc2cc(Br)c(C)s2)[C@H](O)C[C@@H]1O [Control, reference compound]
≥ 10 | – | 1.38 | – | – | Cc1sc(CC[C@H](O)/C=C/[C@H]2C(C)CC(O)[C@@H]2C/C=C\CCCC(=O)NCCO)cc1Br (stereo partly drawn) [Compound 16H, (Z)-7-{(1R,2R)-2-[(E)-(S)-5-(4-Bromo-5-methyl-thiophen-2-yl)-3-hydroxy-pent-1-enyl]-5-hydroxy-3-methyl-cyclopentyl}-hept-5-enoic acid (2-hydroxy-ethyl)-amide]
> 10 | – | – | – | – | Cc1sc(CC[C@H](O)/C=C/[C@H]2C(C)CC(O)[C@@H]2C/C=C\CCCC(N)=O)cc1Br (stereo partly drawn) [Compound 17L, (Z)-7-{(1R,2R)-2-[(E)-(S)-5-(4-Bromo-5-methyl-thiophen-2-yl)-3-hydroxy-pent-1-enyl]-5-hydroxy-3-methyl-cyclopentyl}-hept-5-enoic acid amide]
